How the values were obtained:
Assay type in all cases: cell-based, human
[1] = test system: IFN-γ gene expression in CD4/CD8+ T cells; test: qRT-PCR of IFN-γ expression in CD4/CD8+ T cells isolated from APCCs; settings: n=3
Description: (§1) Cabozantinib (SelleckChem) was added at 10 μM to the APCCs.
(§2) For qRT-PCR analysis of the CD15+ cells and CD4/8+ T cells, CD15+ cells or CD4/8+ T cells were pre-labeled by CD15 or CD4-and-CD8 (1:1) magnetic beads for 15 minutes at 4° C. respectively before mixed with other tumor cells for acoustic assembly. The CD15+ cells or CD4/8+ T cells with the labeling beads were then assembled into APCCs. To analyze their gene expression profiles, the APCCs were digested by with cell recovery solution (Corning), and input onto MACS columns (Miltenyi) for positive magnetic separation to isolate pure CD15+ cells or T cells (CD4+ or CD8+). The purified CD15+ cells or CD4/8+ T cells were then lysed for RNA extraction by RNeasy Mini Kit (Qiagen), reverse transcribed to cDNA by High-Capacity cDNA Reverse Transcription Kit (Applied Biosystems), and analyzed using corresponding primer pairs (Table 2) and SYBR Green PCR Master Mix (Applied Biosystems). The samples were run on a StepOne Real Time PCR machine (Applied Biosystems) to quantify signals. The results were analyzed using AACt method for fold change analysis.

TNF-α = test: ELISA analysis of TNF-α in APCC culture supernatants; settings: n=3
Description: (§3) The levels of TNF-α and IFN-γ were elevated in the APCCs treated with anti-PD1. […] (FIG. 4B).
as §1
(§4) To perform cytokine analysis on the APCCs and 2D tumor cultures, 50 μL supernatants were pipetted out of the culture vessel and centrifuged at 10,000 g for 10 minutes to remove cell debris. The supernatants were then analyzed by human TNF-α or IFN-γ kits (Tribioscience).

[2] = test system: TNF-α gene expression in CD4/CD8+ T cells; test: qRT-PCR of TNF-α expression in CD4/CD8+ T cells isolated from APCCs; settings: n=3
Description: as §1, §2

IFN-γ = test: ELISA analysis of IFN-γ in APCC culture supernatants; settings: n=3
Description: as §3, §1, §4

[3] = test system: tumor cells within RCC derived APCCs; test: Tumor cell death within APCCs by time-lapse imaging; settings: 24-hour time lapse, anti-PD1 5 μg/mL
Description: To evaluate the preservation of MDSC viability inside APCCs, initial tests were performed with renal cell carcinoma (RCC) primary tumors from patients. For MDSC study, the CD15+ cells were first isolated from dissociated patient tumor cells via magnetic microbeads, which consist of tumor infiltrating neutrophils including immunosuppressive polymorphonuclear myeloid derived suppressor cells (PMN-MDSCs). The CD15+ cells were pre-labelled with DiL membrane dyes (shown as yellow). T cells were isolated via a 1:1 mixture of CD4 and CD8 microbeads and pre-labeled the T cells with DiO membrane dyes. The CD15+, CD4+, CD8+ depleted dissociated tumor cells were labeled with the blue CMAC cell tracker dye. Membrane impermeable cell nucleus staining NucRed dead 647 was added to indicate cell death. The cell death of the CD15+ cells was calculated by analyzing co-localization of Dil labeled MDSCs and NucRed cell death indicator dye over time-lapse imaging (FIG. 2A).
MDSC-targeting drugs alone and/or in combination with ICIs. […] The tumor cell death over a 24-hour time lapse was observed. […]
Digested tumor cells were equally divided into 3 tubes. […] Before acoustic assembly, 1 drop of NucRed Dead 647 ReadyProbes (Invitrogen) was added to 1 milliter of cell suspensions and left in medium to visualize cell death over time. […]

[4] = APCCs without CD15+ cells, 24 hours post-treatment
[5] = T cells isolated from APCCs 24 hours post-treatment

## Pembrolizumab [anti-PD1]
[1]; [4]
  IFN-γ gene expression in CD4/CD8+ T cells, APCCs without CD15+ cells: highest
[1]; [5]
  IFN-γ gene expression in CD4/CD8+ T cells: enhanced
TNF-α; APCCs without CD15+ cells
  TNF-α level in culture supernatant, APCCs without CD15+ cells: further elevated
TNF-α; RCC APCCs, vs control
  TNF-α level in culture supernatant: elevated
[2]; [4]
  TNF-α gene expression in CD4/CD8+ T cells, APCCs without CD15+ cells: highest
[2]; [5]
  TNF-α gene expression in CD4/CD8+ T cells: enhanced
IFN-γ; APCCs without CD15+ cells
  IFN-γ level in culture supernatant, APCCs without CD15+ cells: further elevated
IFN-γ; RCC APCCs, vs control
  IFN-γ level in culture supernatant: elevated
[3]; APCCs from 3 RCC patient primary tumors, Cabozantinib 10 μM
  increase in tumor cell death as compared to untreated control: about 17.0%±9.4%
[3]; APCCs without CD15+ cells (MDSCs removal)
  increase in tumor cell death as compared to untreated control, APCCs without CD15+ cells: about 40.9%±9.4%

Source: US20240425808A1, “A METHOD FOR RAPID GENERATION OF 3D ORGANOTYPIC CELL CLUSTERS” (THE TRUSTEES OF INDIANA UNIVERSITY, priority 2022, published 2024)
